Assay results from ChEMBL document CHEMBL5325501, “Discovery of BWA-522, a First-in-Class and Orally Bioavailable PROTAC Degrader of the Androgen Receptor Targeting N-Terminal Domain for the Treatment of Prostate Cancer” (J Med Chem, 2023).
Calls of active or inactive are those of the source. The rule behind the calls is not given here.

Experiments:
[1] = Half-life in beagle dog at 1 mg/kg, iv measured by LC-MS/MS analysis; assay type: ADME, organism-based, Canis lupus familiaris; conditions: in vivo
[2] = Metabolic stability in human liver microsomes assessed as half-life at 2 uM preincubated for 10 mins in the presence of NADPH followed by compound addition and measured after 60 mins by LC-MS/MS analysis; assay type: ADME, Microsome
VCaP [3] = assay: Induction of apoptosis in human VCaP cells assessed as PARP-1 cleavage at 5 to 10 uM incubated for 48 hrs by Western blot analysis; assay type: functional, cell-based; conditions: dose 5-10 µM
[4] = Downregulation of FKBP51 protein level in human LNCaP cells at 10 uM incubated for 48 hrs by Western blot analysis relative to control; assay type: functional
[5] = Stability in human plasma assessed as parent compound remaining measured after 30 mins by LC-MS/MS analysis; assay type: ADME, cell-free; conditions: read-out: Stability
[6] = Stability in human plasma assessed as parent compound remaining measured after 60 mins by LC-MS/MS analysis; assay type: ADME, cell-free; conditions: read-out: Stability
[7] = Stability in human plasma assessed as parent compound remaining measured immediately by LC-MS/MS analysis; assay type: ADME, cell-free; conditions: read-out: Stability
[8] = Cmax in beagle dog at 1 mg/kg, iv measured by LC-MS/MS analysis; assay type: ADME, organism-based, Canis lupus familiaris; parameters: dose 1 mg/kg, route iv; conditions: in vivo
LNCaP [9] = assay: Downregulation of PSA protein level in human LNCaP cells incubated for 48 hrs by Western blot analysis; assay type: functional, cell-based; conditions: dose 1-10 µM
[10] = Metabolic stability in mouse liver microsomes assessed as parent compound remaining at 2 uM preincubated for 10 mins in the presence of NADPH followed by compound addition and measured after 60 mins by LC-MS/MS analysis; assay type: ADME, Microsome; conditions: read-out: Stability
[11] = Toxicity in ICR mouse assessed as liver damage at 20 to 60 mg/kg, po administered daily for 14 days; assay type: organism-based; conditions: in vivo, 336 h, dose 20-60 mg/kg, time 14 day
[12] = Cmax in beagle dog at 5 mg/kg, po measured by LC-MS/MS analysis; assay type: ADME, organism-based, Canis lupus familiaris; parameters: dose 5 mg/kg, route po; conditions: in vivo
[13] = Stability in mouse plasma assessed as parent compound remaining measured after 30 mins by LC-MS/MS analysis; assay type: ADME, cell-free; conditions: read-out: Stability
[14] = Stability in human plasma assessed as parent compound remaining measured after 45 mins by LC-MS/MS analysis; assay type: ADME, cell-free; conditions: read-out: Stability
VCaP [15] = assay: Downregulation of TMPRSS2 protein level in human VCaP cells incubated for 48 hrs by Western blot analysis; assay type: functional, cell-based; conditions: dose 1-10 µM
PC-3 = assay: Antiproliferative activity against AR-independent human PC-3 cells assessed as reduction in cell viability at 10 uM incubated for 6 days by CCK-8 assay; assay type: functional, cell-based; conditions: time 6.0 day
LNCaP [16] = assay: Antitumor activity against human LNCaP cells xenografted in NOD SCID mouse assessed as tumor growth inhibition at 60 mg/kg, po administered daily for 4 weeks relative to control; assay type: functional; conditions: 672 h, read-out: TGI
[17] = Oral bioavailability in beagle dog at 5 mg/kg measured by LC-MS/MS analysis; assay type: ADME, organism-based, Canis lupus familiaris; conditions: in vivo
[18] = Stability in mouse plasma assessed as parent compound remaining measured after 15 mins by LC-MS/MS analysis; assay type: ADME, cell-free; conditions: read-out: Stability
[19] = Oral bioavailability in ICR mouse at 10 mg/kg measured by LC-MS/MS analysis; assay type: ADME, organism-based; conditions: in vivo
[20] = Stability in mouse plasma assessed as parent compound remaining measured after 60 mins by LC-MS/MS analysis; assay type: ADME, cell-free; conditions: read-out: Stability
[21] = Half-life in beagle dog at 5 mg/kg, po measured by LC-MS/MS analysis; assay type: ADME, organism-based, Canis lupus familiaris; conditions: in vivo
[22] = Tmax in ICR mouse at 10 mg/kg, po measured by LC-MS/MS analysis; assay type: ADME, organism-based; conditions: in vivo
[23] = Downregulation of PSA protein level in human LNCaP cells at 10 uM incubated for 48 hrs by Western blot analysis relative to control; assay type: functional
[24] = Metabolic stability in mouse liver microsomes assessed as intrinsic clearance at 2 uM preincubated for 10 mins in the presence of NADPH followed by compound addition and measured per mg protein after 60 mins by LC-MS/MS analysis; assay type: ADME, Microsome; conditions: read-out: CLH
[25] = AUC(0 to t) in beagle dog at 5 mg/kg, po measured by LC-MS/MS analysis; assay type: ADME, organism-based, Canis lupus familiaris; parameters: dose 5 mg/kg, route po; conditions: in vivo
[26] = Stability in human plasma assessed as parent compound remaining measured after 120 mins by LC-MS/MS analysis; assay type: ADME, cell-free; conditions: read-out: Stability
[27] = Stability in mouse plasma assessed as parent compound remaining measured immediately by LC-MS/MS analysis; assay type: ADME, cell-free; conditions: read-out: Stability
[28] = Downregulation of TMPRSS2 protein level in human VCaP cells at 10 uM incubated for 48 hrs by Western blot analysis relative to control; assay type: functional
[29] = Tmax in beagle dog at 5 mg/kg, po measured by LC-MS/MS analysis; assay type: ADME, organism-based, Canis lupus familiaris; conditions: in vivo
[30] = Metabolic stability in human liver microsomes assessed as parent compound remaining at 2 uM preincubated for 10 mins followed by compound addition and measured after 60 mins by LC-MS/MS analysis; assay type: ADME, Microsome; conditions: read-out: Stability
LNCaP [31] = assay: Antitumor activity against human LNCaP cells xenografted in NOD SCID mouse assessed as reduction in tumor weight at 20 to 60 mg/kg, po administered daily for 4 weeks; assay type: functional, organism-based; conditions: dose 20-60 mg/kg
VCaP [32] = assay: Antiproliferative activity against human VCaP cells assessed as reduction in cell viability incubated for 6 days by CCK-8 assay; assay type: functional, cell-based; conditions: 144 h
VCaP [33] = assay: Downregulation of FKBP51 protein level in human VCaP cells incubated for 48 hrs by Western blot analysis; assay type: functional, cell-based; conditions: dose 1-10 µM
[34] = Tmax in ICR mouse at 2 mg/kg, iv measured by LC-MS/MS analysis; assay type: ADME, organism-based; conditions: in vivo
VCaP [35] = assay: Induction of apoptosis in human VCaP cells assessed as caspase-3 cleavage at 5 to 10 uM incubated for 48 hrs by Western blot analysis; assay type: functional, cell-based; conditions: dose 5-10 µM
[36] = Stability in human plasma assessed as parent compound remaining measured after 15 mins by LC-MS/MS analysis; assay type: ADME, cell-free; conditions: read-out: Stability

- half-life [1]: 9.9 h
- half-life at 2 µM [2]: 3.12 h
- remaining at 0.5 h [5]: 92.1%
- remaining at 1 h [6]: 91.9%
- remaining at 0 min [7]: 100%
- Cmax [8]: 150 ng/mL
- remaining at 1 h, 2 µM [10]: 78.2%
- Cmax [12]: 97.3 ng/mL
- remaining at 0.5 h [13]: 90.3%
- remaining at 0.75 h [14]: 93.9%
- F [17]: 69.3%
- remaining at 0.25 h [18]: 88%
- bioavailability [19]: 40.5%
- remaining at 1 h [20]: 90.8%
- half-life [21]: 31.2 h
- Tmax [22]: 4.7 h
- microsomal CLint at 2 µM [24]: 7.4 µL/min/mg
- AUCt [25]: 1411 ng·h/mL
- remaining at 2 h [26]: 87.3%
- remaining at 0 min [27]: 100%
- Tmax [29]: 2.8 h
- remaining at 1 h, 2 µM [30]: 94%
- IC50 (VCaP [32]): 5.59 µM
- Tmax [34]: 6 min
- remaining at 0.25 h [36]: 92.2%
SMILES: CC(C)(c1ccc(OCC2CCN(CC3CCN(c4ccc5c(c4)C(=O)N(C4CCC(=O)NC4=O)C5=O)CC3)CC2)cc1)c1ccc(OC[C@H](O)CCl)cc1 (some centres not stated)
- Activity (VCaP [3]): Active
- Activity [4]: ~25%
- Activity (LNCaP [9]): Dose-Dependent Effect
- Activity [11]: Non-Toxic
- Activity (VCaP [15]): Dose-Dependent Effect
- Activity (PC-3): inactive
- inhibition in vivo at 60 mg/kg (LNCaP [16]): 76%
- Activity [23]: ~15%
- Activity [28]: ~40%
- Activity (LNCaP [31]): Active
- Activity (VCaP [33]): Dose-Dependent Effect
- Activity (VCaP [35]): Active
